{"source": "patent US20030224072A1", "about": "“Topical and oral administration of a composition containing Pelargonium Graveolens for diagnosis and treatment of various neuralgias and other conditions” (priority 2002, published 2003)", "origin": "cited, not measured here", "tested_on": "neuropathic pain", "settings": "topical", "data": [{"molecule": "COc1cc(CNC(=O)CCCC/C=C/C(C)C)ccc1O", "note": "[Capsaicin]", "values": [{"measurement": "duration of burning sensation on skin", "result": "approximately one week"}, {"measurement": "share of neuropathic pain patients with pain relief", "result": "only a small percentage"}]}]}
